Test results as given in PMC9475448, “What a difference a methylene makes: replacing Glu with Asp or Aad in the Lys-urea-Glu pharmacophore of PSMA-targeting radioligands to reduce kidney and salivary gland uptake” (Theranostics, 2022).

System: LNCaP tumor-bearing mice
Assay: Ex vivo biodistribution of 177Lu-labeled ligands in LNCaP tumor-bearing NRG mice
[1] = 4 h post-injection, listed as [177Lu]Lu-HTK03149

O=C([O-])CN1CCN(CC(=O)[O-])CCN(CC(=O)NCC2CCC(C(=O)NC(Cc3c4ccccc4cc4ccccc34)C(=O)NCCCCC(NC(=O)NC(CCCC(=O)O)C(=O)O)C(=O)O)CC2)CCN(CC(=O)[O-])CC1.[177Lu+3] (stereo not drawn) [[^177Lu]Lu-HTK03149]
Kidneys uptake [1]: 1.666 ± 0.378 %IA/g | Salivary glands uptake [1]: 0.051 ± 0.010 %IA/g | Tumor uptake [1]: 20.90 ± 2.988 %IA/g | Adrenal glands uptake (24 h post-injection): 0.073 ± 0.018 %IA/g | Blood uptake (24 h post-injection): 0.116 ± 0.007 %IA/g | Blood:Salivary gland uptake ratio (24 h post-injection): 2.37 ± 0.24 | Bone uptake (24 h post-injection): 0.025 ± 0.003 %IA/g | Brain uptake (24 h post-injection): 0.006 ± 0.001 %IA/g | Fat uptake (24 h post-injection): 0.017 ± 0.002 %IA/g | Heart uptake (24 h post-injection): 0.065 ± 0.004 %IA/g | Intestines uptake (24 h post-injection): 0.086 ± 0.047 %IA/g | Kidneys uptake (24 h post-injection): 0.596 ± 0.109 %IA/g | Lacrimal glands uptake (24 h post-injection): 0.004 ± 0.005 %IA/g | Liver uptake (24 h post-injection): 0.103 ± 0.008 %IA/g | Lungs uptake (24 h post-injection): 0.122 ± 0.015 %IA/g | Muscle uptake (24 h post-injection): 0.017 ± 0.003 %IA/g | Pancreas uptake (24 h post-injection): 0.032 ± 0.005 %IA/g | Salivary glands uptake (24 h post-injection): 0.049 ± 0.007 %IA/g | Spleen uptake (24 h post-injection): 0.085 ± 0.012 %IA/g | Stomach uptake (24 h post-injection): 0.125 ± 0.112 %IA/g | Testes uptake (24 h post-injection): 0.047 ± 0.003 %IA/g | Thyroid uptake (24 h post-injection): 0.060 ± 0.002 %IA/g | Tumor uptake (24 h post-injection): 13.80 ± 2.876 %IA/g | Tumor:Blood uptake ratio (24 h post-injection): 120 ± 31.1 | Tumor:Muscle uptake ratio (24 h post-injection): 842 ± 216 | Tumor:Salivary gland uptake ratio (24 h post-injection): 286 ± 88.4 | Adrenal glands uptake (72 h post-injection): 0.124 ± 0.052 %IA/g | Blood uptake (72 h post-injection): 0.067 ± 0.016 %IA/g | Blood:Salivary gland uptake ratio (72 h post-injection): 1.45 ± 0.69 | Bone uptake (72 h post-injection): 0.026 ± 0.011 %IA/g | Brain uptake (72 h post-injection): 0.003 ± 0.002 %IA/g | Fat uptake (72 h post-injection): 0.042 ± 0.042 %IA/g | Heart uptake (72 h post-injection): 0.060 ± 0.014 %IA/g | Intestines uptake (72 h post-injection): 0.088 ± 0.034 %IA/g | Kidneys uptake (72 h post-injection): 0.679 ± 0.387 %IA/g | Lacrimal glands uptake (72 h post-injection): 0.006 ± 0.007 %IA/g | Liver uptake (72 h post-injection): 0.130 ± 0.034 %IA/g | Lungs uptake (72 h post-injection): 0.108 ± 0.022 %IA/g | Muscle uptake (72 h post-injection): 0.018 ± 0.003 %IA/g | Pancreas uptake (72 h post-injection): 0.033 ± 0.002 %IA/g | Salivary glands uptake (72 h post-injection): 0.051 ± 0.016 %IA/g | Stomach uptake (72 h post-injection): 0.140 ± 0.104 %IA/g | Testes uptake (72 h post-injection): 0.053 ± 0.008 %IA/g | Thyroid uptake (72 h post-injection): 0.079 ± 0.008 %IA/g | Tumor uptake (72 h post-injection): 17.1±4.70 %IA/g | Tumor:Blood uptake ratio (72 h post-injection): 258 ± 74.7 | Tumor:Muscle uptake ratio (72 h post-injection): 985 ± 342 | Tumor:Salivary gland uptake ratio (72 h post-injection): 349 ± 109 | Tumor uptake (72 h post-injection, listed as [177Lu]Lu-HTK03149): 17.12 ± 4.702 %IA/g | Adrenal glands uptake (120 h post-injection): 0.024 ± 0.027 %IA/g | Blood uptake (120 h post-injection): 0.021 ± 0.006 %IA/g | Blood:Salivary gland uptake ratio (120 h post-injection): 0.75 ± 0.19 | Bone uptake (120 h post-injection): 0.015 ± 0.007 %IA/g | Brain uptake (120 h post-injection): 0.002 ± 0.001 %IA/g | Fat uptake (120 h post-injection): 0.014 ± 0.009 %IA/g | Heart uptake (120 h post-injection): 0.034 ± 0.014 %IA/g | Intestines uptake (120 h post-injection): 0.069 ± 0.046 %IA/g | Kidneys uptake (120 h post-injection): 0.276 ± 0.064 %IA/g | Lacrimal glands uptake (120 h post-injection): 0.001 ± 0.002 %IA/g | Liver uptake (120 h post-injection): 0.079 ± 0.041 %IA/g | Lungs uptake (120 h post-injection): 0.086 ± 0.076 %IA/g | Muscle uptake (120 h post-injection): 0.012 ± 0.004 %IA/g | Pancreas uptake (120 h post-injection): 0.020 ± 0.007 %IA/g | Salivary glands uptake (120 h post-injection): 0.029 ± 0.007 %IA/g | Spleen uptake (120 h post-injection): 0.129 ± 0.079 %IA/g | Stomach uptake (120 h post-injection): 0.084 ± 0.041 %IA/g | Testes uptake (120 h post-injection): 0.033 ± 0.012 %IA/g | Thyroid uptake (120 h post-injection): 0.044 ± 0.015 %IA/g | Tumor uptake (120 h post-injection): 16.39 ± 10.99 %IA/g | Tumor:Blood uptake ratio (120 h post-injection): 780 ± 451 | Tumor:Muscle uptake ratio (120 h post-injection): 1336 ± 566 | Tumor:Salivary gland uptake ratio (120 h post-injection): 533 ± 218
